Biological target: Proprotein convertase subtilisin/kexin type 9 (Homo sapiens) (UniProt Q8NBP7)
Assay: Inhibition of human PCSK9 by Alexa Fluor 647 staining based TR-FRET assay relative to control

Chain of Proprotein convertase subtilisin/kexin type 9 (Homo sapiens) (Q8NBP7 31-152 limits assumed): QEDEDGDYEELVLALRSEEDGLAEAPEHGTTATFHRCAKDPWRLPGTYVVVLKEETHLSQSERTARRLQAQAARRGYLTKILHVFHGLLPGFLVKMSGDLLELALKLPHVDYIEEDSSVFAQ
Chain of Proprotein convertase subtilisin/kexin type 9 (Homo sapiens) (Q8NBP7 153-692 limits assumed): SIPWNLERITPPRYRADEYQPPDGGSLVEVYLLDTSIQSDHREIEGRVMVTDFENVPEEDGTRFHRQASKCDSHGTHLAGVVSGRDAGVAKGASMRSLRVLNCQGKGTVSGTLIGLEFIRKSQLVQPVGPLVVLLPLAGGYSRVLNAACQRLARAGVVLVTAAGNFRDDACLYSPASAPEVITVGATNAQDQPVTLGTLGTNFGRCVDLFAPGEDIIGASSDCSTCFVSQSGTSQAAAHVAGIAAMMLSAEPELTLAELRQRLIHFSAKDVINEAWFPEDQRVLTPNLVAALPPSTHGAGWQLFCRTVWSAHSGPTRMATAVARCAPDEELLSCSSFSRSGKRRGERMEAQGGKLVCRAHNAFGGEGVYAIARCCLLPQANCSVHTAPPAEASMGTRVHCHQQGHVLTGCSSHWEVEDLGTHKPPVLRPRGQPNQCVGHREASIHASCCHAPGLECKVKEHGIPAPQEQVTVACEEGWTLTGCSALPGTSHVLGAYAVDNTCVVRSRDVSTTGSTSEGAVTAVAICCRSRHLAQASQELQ

| SMILES | Imax |
| --- | --- |
| COC[C@@H]1NC(=O)[C@H](C)N(Cc2ncc(Cl)cc2Oc2ccc(-c3cnc(CN(C)C)n3C)cc2)C(=O)C[C@@H](Cc2ccccc2)C(=O)N2CCC[C@@](Cc3ccc(Cl)cc3)(C2)NC1=O | 103% |
| COC[C@@H]1NC(=O)[C@H](C)N(Cc2ccc(Cl)cc2Oc2ccc(-c3cnc(CN(C)C)n3C)nc2)C(=O)C[C@@H](CC(F)(F)F)C(=O)N2CCC[C@@](Cc3ccc(Cl)cc3)(C2)N(C)C1=O | 113% |
| C[C@H]1C(=O)N[C@@H](CO)C(=O)N[C@@]2(Cc3ccc(Cl)cc3)CCCN(C2)C(=O)[C@H](Cc2ccccc2)CC(=O)N1Cc1ccc(Cl)c(F)c1Oc1ccc(-c2cnc(CN(C)C)n2C)cc1 | 101% |

More lines, now with the values ahead:

| Imax | SMILES |
| --- | --- |
| 100% | C[C@H]1C(=O)N[C@@H](CO)C(=O)N[C@@]2(Cc3ccc(Cl)cc3)CCCN(C2)C(=O)[C@H](CC2CC2)CC(=O)N1Cc1c(F)cc(Cl)cc1Oc1ccc(-c2cnc(CNC3CCC3)n2C)cc1 |
| 105% | CNCc1ncc(-c2ccc(Oc3cc(Cl)cc(F)c3CN3C(=O)C[C@@H](CC(F)(F)F)C(=O)N4CCC[C@@](Cc5ccc(Cl)cc5)(C4)N(C)C(=O)[C@H](COC)NC(=O)[C@@H]3C)cc2)n1C |
| 105% | CNCc1ncc(-c2ccc(Oc3cc(Cl)ccc3CN3C(=O)C[C@@H](Cc4ccccc4)C(=O)N4CCC[C@@](Cc5ccc(Cl)cc5)(C4)NC(=O)[C@H](CO)NC(=O)[C@@H]3C)cc2)n1C |

Source: ChEMBL document CHEMBL4619822, “Novel Cyclic Tetramer Compounds as PCSK9 Inhibitors for Treating Metabolic Disorders” (ACS Med Chem Lett, 2020)
